Species on record: Mus musculus
Assay: Effective dose for inhibition of phencyclidine binding measured in mouse rotarod assay
Assay type: functional

| Compound | ED50 |
| --- | --- |
| Oc1cccc(C2(N3CCCCC3)CCCCC2)c1 | 2.2 mg/kg |
| OC1CCCC(c2ccccc2)(N2CCCCC2)C1 (stereo unspecified) | 49.9 mg/kg |
| Oc1ccc(C2(N3CCCCC3)CCCCC2)cc1 | 28 mg/kg |
| OC1CCN(C2(c3ccccc3)CCCCC2)CC1 | 42 mg/kg |
| Oc1ccccc1C1(N2CCCCC2)CCCCC1 | 18 mg/kg |
| c1ccc(C2(N3CCCCC3)CCCCC2)cc1 [PHENCYCLIDINE] | 4 mg/kg |
